{"source": "patent US10455849B2", "about": "“Method for the preparation of a protein peptide, a protein peptide and use thereof” (INFINITUS (CHINA) COMPANY LTD., priority 2015, dated 2019)", "key": {"[1]": {"test_system": "rats having hyperuricemia induced by potassium oxonate", "assay": "Serum uric acid content of rats having hyperuricemia induced by potassium oxonate (tungstic acid method)", "format": "in vivo, rat", "conditions": "allopurinol group 50 mg·kg^−1; p<0.01; day not given", "excerpt": "(§1) 180 SD rats (SPF grade, male, 200±20 (g)) were provided by Laboratory Animals Centre, Guangzhou University of Chinese Medicine (License Number: SCXK(Yue)2013-0020). Reagents: allopurinol tablets (Guangdong P.D. Pharmaceutical Co., Ltd., Production batch No. 20130302); potassium oxonate (Shandong Zhongke Taidou Chemical Co., Ltd., Batch No. 120901); sodium carboxymethyl cellulose (Shanghai Celluloid Factory, Product Standard No. GB2760); uric acid assay kit (NanJing Jiancheng Bioengineering Institute, Production batch No. 20130529).\n(§2) Animal grouping and modeling: 165 normal healthy SD male rats were obtained and randomly divided into normal control group (15 rats) and model group (150 rats). […] Those rats having a uric acid content of greater than 110 μmol·L^−1 were determined to be successful models. […] On 10th and 20th day after treatment with the above-described peptide samples, 50 min after the last administration, the rats were anaesthetized with 3% pentobarbitol sodium (i.p., 30 mg·kg^−1), and the blood (0.5 ml) was collected from conjunctiva and the serum uric acid content was determined. On 30th day after treatment with antigout peptides, the rats were anaesthetized with 3% pentobarbitol sodium, and 5 ml of blood was collected from coeliac artery and the content of serum creatinine and urea nitrogen were determined at the same time in addition to the serum uric acid content. […]"}, "[2]": {"test_system": "rats having hyperuricemia induced by potassium oxonate", "assay": "Serum creatinine content of rats having hyperuricemia induced by potassium oxonate (picric acid method)", "format": "in vivo, rat", "conditions": "administration for 30 d, extracts 200 mg·kg^−1, allopurinol 50 mg·kg^−1, intragastric, x ± s", "excerpt": "as §1, §2"}}, "note": "Marks after values point to notes of the source that are not given here."}
{"molecule": "Oc1ncnc2[nH]ncc12", "note": "[Allopurinol, allopurinol]", "values": [{"measurement": "Effect on serum uric acid content versus model group (in words)", "setting": "[1]", "result": "very significant effect in the reduction of the serum uric acid"}, {"measurement": "Creatinine (μmol/L)", "setting": "[2]", "result": "52.9 ± 10.8^b μmol/L"}]}
